Data as given in PMC11170206, “A novel fatty acid mimetic with pan-PPAR partial agonist activity inhibits diet-induced obesity and metabolic dysfunction-associated steatotic liver disease” (Molecular Metabolism, 2024).

What was measured:
Assay type in all cases: cell-based
PPARδ = molecular target: T1, PPARδ (Mus musculus, UniProt P35396); assay: GAL4/UAS-luciferase reporter assay in transfected HEK293 cells, dose-response (partial agonist)
T1 construct: gene Ppard; GAL4-mPPARδ
T1 sequence (P35396 210-440 limits assumed): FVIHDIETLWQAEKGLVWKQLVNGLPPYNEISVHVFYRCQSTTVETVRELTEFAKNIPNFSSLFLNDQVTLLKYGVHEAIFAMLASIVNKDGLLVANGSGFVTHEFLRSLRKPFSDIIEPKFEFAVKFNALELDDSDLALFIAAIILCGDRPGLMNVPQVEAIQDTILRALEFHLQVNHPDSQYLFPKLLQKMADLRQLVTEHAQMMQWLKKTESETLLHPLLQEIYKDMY

PPARγ = molecular target: T2, PPARγ (Mus musculus, UniProt P37238); assay: as above
T2 construct: gene Pparg; GAL4-mPPARγ
T2 sequence (P37238 1-505): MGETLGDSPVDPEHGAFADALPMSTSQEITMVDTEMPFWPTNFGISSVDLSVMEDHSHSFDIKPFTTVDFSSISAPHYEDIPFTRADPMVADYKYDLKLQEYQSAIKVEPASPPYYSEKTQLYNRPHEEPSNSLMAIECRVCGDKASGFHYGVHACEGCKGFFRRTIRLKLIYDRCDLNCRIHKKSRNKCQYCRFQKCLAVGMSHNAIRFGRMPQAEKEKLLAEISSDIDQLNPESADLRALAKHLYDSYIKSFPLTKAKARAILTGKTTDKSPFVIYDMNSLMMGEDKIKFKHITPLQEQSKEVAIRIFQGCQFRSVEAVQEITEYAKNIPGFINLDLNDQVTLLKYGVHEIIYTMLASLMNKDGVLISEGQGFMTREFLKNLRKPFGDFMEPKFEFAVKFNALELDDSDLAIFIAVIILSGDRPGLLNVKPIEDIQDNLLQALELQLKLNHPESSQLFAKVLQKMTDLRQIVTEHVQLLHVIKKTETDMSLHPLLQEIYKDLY

PPARα [1] = molecular target: T3, PPARα (Mus musculus, UniProt P23204); assay: as above
T3 construct: gene Ppara; GAL4-mPPARα
T3 sequence (P23204 1-468): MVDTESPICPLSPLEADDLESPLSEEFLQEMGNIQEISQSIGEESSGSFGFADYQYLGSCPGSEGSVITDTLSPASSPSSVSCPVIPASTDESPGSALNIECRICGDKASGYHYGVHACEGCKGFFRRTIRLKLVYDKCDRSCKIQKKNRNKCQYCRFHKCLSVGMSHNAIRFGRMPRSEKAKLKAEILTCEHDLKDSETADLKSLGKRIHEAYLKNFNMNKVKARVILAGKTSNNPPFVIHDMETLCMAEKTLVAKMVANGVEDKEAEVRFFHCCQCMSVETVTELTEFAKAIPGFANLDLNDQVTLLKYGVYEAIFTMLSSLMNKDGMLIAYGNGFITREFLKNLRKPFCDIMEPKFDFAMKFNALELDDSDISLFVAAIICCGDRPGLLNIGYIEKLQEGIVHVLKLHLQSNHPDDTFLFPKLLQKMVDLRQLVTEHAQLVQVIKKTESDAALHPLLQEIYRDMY

PPARα [2] = molecular target: T3, PPARα; assay: GAL4/UAS-luciferase reporter assay in transfected HEK293 cells, positive control agonist

Row | SMILES | EC50 (PPARδ) | EC50 (PPARγ) | EC50 (PPARα [1]) | GAL4/UAS-luciferase reporter assay in transfected HEK293 cells, positive control (PPARα [2])
1 | CCCCCCCCCCCCCCCc1cccc(OC(C)(C)C(=O)O)c1 [LDT409] | 1000 nM | 100 nM | 100 nM | 
2 | Cc1cccc(Nc2cc(Cl)nc(SCC(=O)O)n2)c1C [WY14643] |  |  |  | full dose–response curve comparing LDT409 against positive controls for each mouse PPAR (WY, PPARα agonist;
